In patent publication US20190254285A1, “SODIUM PHOSPHITE COMBINATIONS” (priority 2016, published 2019):

Experiments:
Botrytis cinerea = Botrytis cinerea rot on wounded apple and banana fruit; type: in vivo; design: key: Different results are indicated by different letters; Different results are indicated by different letters; Different results are indicated by different letters; Different results are indicated by different letters; Different results are indicated by different letters
Source text: Tested fruit: apple (cv Elstar) and a banana (cv Cavendish) from organic origin/SKAL certified. SKAL is a semi-governmental Dutch organization that controls organic production in the Netherlands.
Used pathogen: Botrytis cinerea spore-suspension containing ˜3×10^5 propagules (spores)/ml.
Application: Fruit peel was damaged with a cork borer, depth ˜0.5 cm into the fruit, 2 wounds per apple fruit; 2 wounds per banana fruit. 30 microliters of a freshly prepared spore suspension of B. cinerea (estimated 3×10^5 spores/ml) were applied by pipette onto each wound. Subsequently, the spore-suspension was allowed to air-dry for 3 hours. 50 microliters of fungicide suspensions 1-6 were applied by pipette to each wound.
All fruits were kept at room temperature (20° C.).
Replicates: All treatments (1-6) were performed on 6 individual apples and 6 individual bananas with 2 wounds each resulting in 12 wounds per fruit per treatment. The recorded observed antifungal activity is the reduction (in percentages) of the average surface of the rot as observed in the 12 wounds compared to the rot surface of the untreated control.
Observation: All wounds were inspected daily for visual symptoms of fruit rot and/or fungus growth. Rot surface was determined after 5 and 7 days (see Tables 1, 2 and 3). The recorded observed antifungal activity is the surface of the rot.

Penicillium discolor = Penicillium discolor rot on wounded apples cv Gala; type: in vivo; settings: rot surface area vs untreated control, phosphite 16 mM, natamycin 100 ppm
Experimental: Tested fruit: apples cv Gala from organic origin/SKAL certified. SKAL is a semi-governmental Dutch organization that controls organic production in the Netherlands. Wounds of the apples were checked at day 3. All phosphite concentrations were tested at a concentration of 16 mM of phosphonate. Natamycin (95%, Freda) solo and in combination was tested at a concentration of 100 ppm. […] Used pathogen: Penicillium discolor spore-suspension containing 4*10E6 spores/ml. Application: The fruit peel of the apple was damaged with a cork borer, ø4 mm and depth ˜0.5 cm into the fruit, with 2 wounds per apple. 40 microliter of a freshly prepared spore suspension of P. discolor was applied by pipette onto each wound. Subsequently, the spore-suspension was allowed to air-dry for 4 hours. Then, 50 microliter of a treatment as presented in the list above was applied by pipette to each wound. All fruits were kept at room temperature (20° C.). Wounds of the apples were checked after 4, 7 and 9 days of incubation. The efficacy is calculated by measuring the surface area (square mm) of the rot on the apples, and compared to the untreated control (see Table 4). Replicates: All treatments for the apple experiment were performed on six individual apples with two wounds each resulting in 12 wounds per treatment.

Q: How did the “Effect on fungicidal attack of Botrytis on apple and banana” value (“Effect on fungicidal attack of Botrytis” for short) (Botrytis cinerea; Table 1, phosphonate Control, mandipropamid 1/16 label) turn out when `C#CCOc1ccc(CCNC(=O)C(OCC#C)c2ccc(Cl)cc2)cc1OC` (racemic) [mandipropamid, (RS)-2-(4-chloorfenyl)-N-[3-methoxy-4-(prop-2-ynyloxy)fenethyl]-2-(prop-2-ynyloxy)acetamide] was run?
A: e

Q: What about the “Effect on fungicidal attack of Botrytis” value (Botrytis cinerea; Table 1, phosphonate Control, mandipropamid ¼ label) of the same compound?
A: e

Q: What about the “Effect on fungicidal attack of Botrytis” value (Botrytis cinerea; Table 1, phosphonate Control, mandipropamid ½ label) of the same compound?
A: d

Q: And the “Effect on fungicidal attack of Botrytis” value (Botrytis cinerea; Table 1, phosphonate Control, mandipropamid ⅛ label)?
A: e

Q: And the “Effect on fungicidal attack of Botrytis” value (Botrytis cinerea; Table 3, Na2HPO3 part, phosphonate Control, mandipropamid ¼ label)?
A: d

Q: And the “Effect on fungicidal attack of Botrytis” value (Botrytis cinerea; Table 3, Na2HPO3 part, phosphonate Control, mandipropamid ⅛ label)?
A: e

Q: And the “Effect on fungicidal attack of Botrytis” value (Botrytis cinerea; Table 3, NaH2PO3 part, phosphonate Control, mandipropamid ¼ label)?
A: e

Q: And the “Effect on fungicidal attack of Botrytis” value (Botrytis cinerea; Table 3, NaH2PO3 part, phosphonate Control, mandipropamid ½ label)?
A: d

Q: Which “Effect on fungicidal attack of Botrytis” value (Botrytis cinerea; Table 2, phosphonate Control, mefenoxam ¼ label) does the source give for `COCC(=O)N(c1c(C)cccc1C)C(C)C(=O)OC` (racemic) [mefenoxam, methyl N-(methoxyacetyl)-N-(2,6-xylyl)-DL-alaninate] here?
A: e

Q: Which “Effect on fungicidal attack of Botrytis” value (Botrytis cinerea; Table 3, NaH2PO3 part, Concentration 1, mandipropamid control) does the source give for `O=[PH]([O-])O.[Na+]` [NaH2PO3, monosodium dihydrogen phosphite] here?
A: d

Q: What about the “Effect on fungicidal attack of Botrytis” value (Botrytis cinerea; Table 3, NaH2PO3 part, Concentration 2, mandipropamid control) of the same compound?
A: c

Q: And the “Effect on fungicidal attack of Botrytis” value (Botrytis cinerea; Table 3, NaH2PO3 part, Concentration 3, mandipropamid control)?
A: b

Q: With `C[C@@H]1C/C=C/C=C/C=C/C=C/[C@H](OC2O[C@H](C)[C@@H](O)[C@H](N)[C@@H]2O)C[C@@H]2O[C@](O)(C[C@@H](O)C[C@H]3O[C@@H]3/C=C/C(=O)O1)C[C@H](O)[C@H]2C(=O)O` (stereo partly drawn) [Natamycin, (1R,3S,5R,7R, 8E,12R,14E,16E,18E,20E,22R,24S,25R,26S)-22-[(3-amino-3,6-dideoxy-D-mannopyranosyl)oxy]-1,3,26-trihydroxy-12-methyl-10-oxo-6,11,28-trioxatricyclo[22.3.1.05,7]octacosa-8,14,16,18,20-pentaene-25-carboxylic acid] as the compound, how does the “Efficacy (%)” value (Penicillium discolor; Day 4) read?
A: 23%

Q: What about the “Efficacy (%)” value (Penicillium discolor; Day 7) of the same compound?
A: 10%

Q: And the “Efficacy (%)” value (Penicillium discolor; Day 9)?
A: 9%
